Measurements from ChEMBL document CHEMBL1127985, “Synthesis and biological evaluation of new LTA4 analogs” (Bioorg Med Chem Lett, 1994).

Experiments:
Cavia porcellus [1] = species on record: Cavia porcellus; test: Compound was tested for inhibition of LTD4 induced contraction of guinea pig ileum; format: functional
Cavia porcellus [2] = species on record: Cavia porcellus; test: Compound was tested for inhibition of LTD4 induced contraction of guinea pig ileum at a concentration 5E-5 M; NS means No significant effect; format: functional

Compound	IC50 (Cavia porcellus [1])	IC50 (Cavia porcellus [2])
CCCCC/C=C\C\C=C/C=C/C=C/c1conc1CCC(=O)OC	60 µM	–
CCCCC/C=C\C\C=C/C=C/C=C/C1CC(CCC(=O)OC)=NO1 (stereo not given)	95 µM	–
CCCCC/C=C\C\C=C/C=C/C=C/c1cc(CCC(=O)OC)no1	–	Not Active
CCCCC/C=C\C\C=C/C=C/C=C/c1conc1CCCC(=O)OC	56 µM	–
CCCCCCCCCC/C=C/C=C/c1cc(CCC(=O)OC)no1	–	Not Active
